In general, EC50 refers to the concentration at which the effect is half-maximal. For orientation: CC50 means the concentration that lowers cell viability or growth by half. A lower CC50 goes with greater toxicity to the cells.

What all share (type): cell-based
One data set concerns the target T1, DUX4 (Homo sapiens, UniProt Q9UBX2).
T1 construct: expressed in transfected cells; host or cells: HEK293
The data set is described as follows: DUX4 EC50 luciferase reporter protocol in transfected HEK293 cells. The conditions noted are these: 6 hr. From the text:
EC50 Protocol This example provides a representative protocol for a single well of a 96-well plate. It can be scaled up as necessary for treatment of multiple wells. For negative controls, a well containing reporter DNA, Renilla DNA, and turbofect (without expression vector) were used. For positive controls, wells containing cells that were not treated with any inhibitor were used. They were transfected with the complete DNA lipid complex as set forth below. The DNA-lipid complex for one well of the 96-well plate is prepared by adding to a tube 100 ng of the transfection factor (TF) expression vector, 100 ng of TF reporter DNA, 10 ng of Renilla reporter DNA, […] Turbofect transfection reagent, and […] of the medium without any serum or penicillin/streptomycin. The combination was mixed by gentle flicking of the tube, and the mixture was pipetted into a well of a 96-well plate. The plate was then gently tapped to spread the combination evenly on the bottom of the well. The well was incubated for 30 min. HEK293 cells were grown until 80% confluent in DMEM supplemented with 10% fetal bovine serum, 1% penicillin streptomycin, and 1% amphotericin B. The adherent cells growing on a 10 cm plate were trypsinized with 1 mL of prewarmed trypsin. Once the cells detached from the plate, 10 mL of medium was added, and the cells were strained through a […] cell strainer. The cells were counted using a mixture of 10 mL cell suspension with 10 mL of trypan blue. Once the total number of cells are counted, a dilution of 150 k/mL was prepared. After incubation of the transfection complex was complete, […] of HEK293s (23.25 k total cells) were gently dispensed on top of the wells containing the 25 mL transfection complex, producing a total volume of about 180 mL. The mixture was then incubated for 24 h. To treat cells with each inhibitor, the inhibitors were prepared in the same growth medium. In a deep well block, the regular medium with serum was added to well 1 (135 mL) and to wells 2 through 10 (100 mL). To the first well was added 15 mL of 10 nM inhibitor. The final concentration of the drug in well 1 was 1 nM. The wells were pipeted up and down, and 50 mL was transferred from well 1 to well 2 (1/3 dilution). The well was mixed, and the seriation dilution was repeated with the remaining wells. Once the serial dilution was complete, using a multichannel pipet, 20 mL of each inhibitor were transferred to designated wells in a 96-well plate. […] Before the assay, a sufficient amount of 1× passive lysis buffer was prepared. The luciferase substrate buffer (Promega) was thawed completely and then mixed with the lyophilized luciferase substrate. The stop buffer (Promega) was also completely thawed. (1) Cell lysis: After treatment of the cells was complete, all the cell media is removed by flipping the 96-well plate over and tapping it dry on a dry paper towel. Immediately afterwards, the 1× passive lysis buffer (25 μL) was added. The plates were then placed on a rocker for 15 minutes at medium speed. (2)Measuring luciferase signal: The luciferase substrate solution for all wells was placed in a solution basin. The luciferase substrate solution was then added to every well (100 μL/well) using a multichannel pipette. The total luminescence was then read immediately using a plate reader. (3)Measuring Renilla signal: The “complete stop solution” was prepared in a solution basin by mixing the buffer with the 50× stop solution substrate (Promega) to make the final 1× solution. The complete stop solution was added to each well (50 μL/well) using a multichannel pipette. The total luminescence was then read immediately using a plate reader. Using a spreadsheet (e.g., Excel), the luciferase signal was divided by the renilla signal to get a relative luciferase unit.
A general note: Reporter assays use an easily measured gene product as a stand-in for the process of interest.

For a further data set, the system named is MB200 cells. Briefly: Cell cytotoxicity 50 assay (CC50), MB200 cells, cell titer glo. The following applies: 72 h. The method, boiled down:
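Luminescence from CellTiter-Glo after 72 h of compound exposure at 37 °C gave the CC50 for MB200 cells. These were plated at 10 k cells/well in triplicate in supplemented F10 medium and treated with a serial dilution series prepared from a 10 mM stock.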

The test system of another data set is HEK. Briefly: Cell cytotoxicity 50 assay (CC50), HEK cells. The method, boiled down: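 CC50 was fitted from total luminescence, measured 5 min after adding CellTiter-Glo reagent to HEK cells. The cells had been exposed for 72 h at 37 °C to medium serial dilutions prepared from a 10 mM drug solution.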

T1 sequence (Q9UBX2 whole entry): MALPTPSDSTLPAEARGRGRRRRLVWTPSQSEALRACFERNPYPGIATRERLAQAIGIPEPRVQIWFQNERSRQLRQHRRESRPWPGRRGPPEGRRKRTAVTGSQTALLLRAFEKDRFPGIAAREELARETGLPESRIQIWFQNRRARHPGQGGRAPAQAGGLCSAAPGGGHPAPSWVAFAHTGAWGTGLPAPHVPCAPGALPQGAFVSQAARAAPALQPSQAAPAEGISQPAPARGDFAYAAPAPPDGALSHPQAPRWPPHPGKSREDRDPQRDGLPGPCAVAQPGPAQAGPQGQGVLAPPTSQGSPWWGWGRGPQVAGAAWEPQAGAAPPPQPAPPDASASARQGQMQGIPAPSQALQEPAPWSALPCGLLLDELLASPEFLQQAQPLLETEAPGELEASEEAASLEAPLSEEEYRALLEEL

With `CN(C(=O)CCCN1C(=O)CCC1=O)c1ccc(Cc2nc3ccccc3s2)cc1` [Compound 169], the EC50 on DUX4 is above 10 µM.
`CC(=O)NCCCc1nc(CCCC(=O)Nc2ccc(-c3nc4cc(F)ccc4s3)cc2)co1` [Compound 138]: the EC50 at DUX4 was above 10 µM.
For `CC(=O)NCCCNC(=O)C12CCC(c3nc4ccccc4s3)(CC1)CC2` [Compound 173], the 50% effective concentration (EC50) at DUX4 is above 10 µM.
With `O=C(CCCN1C(=O)CCC1=O)N[C@@H]1CC[C@@H](c2nc3ccccc3s2)C1` [Compound 162], the EC50 at DUX4 was above 10 µM.
On the same count and under the same terms, the result for `CC(=O)NCCCNC(=O)c1cc(C#N)cc(-c2nc3cc(F)ccc3s2)c1` [Compound 188] reads above 10 µM; that for `CC(=O)N[C@@H]1CC[C@@H](C(=O)Nc2nc3ccccc3s2)C1` [Compound 185], above 10 µM.
In the case of `O=C(CCCN1C(=O)CCC1=O)Nc1nc2ccccc2s1` [Compound 108], the 50% effective concentration (EC50) at DUX4 is above 10 µM. For the same molecule, the CC50 in the data set on MB200 cells and with HEK was above 10 µM in each case.
In the case of `O=C(CCCN1C(=O)CCC1=O)N[C@H]1CC[C@H](c2nc3ccccc3s2)C1` [Compound 161], the EC50 at DUX4 was above 10 µM. Further, the 50% cytotoxic concentration (CC50) with MB200 cells and with HEK was above 10 µM each time.
For `O=C(CCCN1C(=O)CCC1=O)NC1CCC(Cc2nc3ccccc3s2)C1` (stereo not drawn) [Compound 158], on DUX4, the EC50 is above 10 µM.
In the case of `CC(=O)NCCCC(=O)Nc1nc2ccccc2s1` [Compound 107], the concentration for a half-maximal effect (EC50) at DUX4 is above 10 µM.
Same read-out and setting: to `CC(=O)NCCCC(=O)N[C@@H]1CC[C@H](c2nc3ccccc3s2)C1` [Compound 114] belongs above 10 µM; to `O=C(NCCN1C(=O)CCC1=O)c1ccc(-c2nc3ccccc3s2)cc1` [Compound 22], above 10 µM; to `CC(=O)NCCCC(=O)N[C@H]1CC[C@H](c2nc3ccccc3s2)C1` [Compound 115], above 10 µM.
Regarding `O=C(CCCN1C(=O)CCC1=O)N[C@H]1C[C@@H](c2nc3ccccc3s2)C1` [Compound 97], the EC50 on DUX4 is above 10 µM.
For the molecule `CC(=O)NC1CCC(C(=O)Nc2nc3ccccc3s2)C1` (stereo not drawn) [Compound 131], the EC50 on DUX4 is above 10 µM.
As to `O=C(CCCN1C(=O)CCC1=O)NC1CCCC1c1nc2ccccc2s1` (stereo not drawn) [Compound 92], at DUX4, the EC50 was above 10 µM.
The same measure, in the same setting: to `CC(C)(NC(=O)CCCN1CCCC1=O)c1ccc(-c2nc3ccccc3s2)cc1` [Compound 110] belongs above 10 µM; to `CN(C(=O)CCC1CCC(=O)N1)c1ccc(-c2nc3ccccc3s2)cc1` (stereo not drawn) [Compound 177], above 10 µM.
In the case of `CC(=O)NCCCC(=O)Nc1ccc(-c2nccs2)cc1` [Compound 70], at DUX4, the EC50 was above 10 µM.
The same measure, in the same setting: to `O=C(CCCN1C(=O)CCC1=O)NC1CCC(c2nc3ccccc3s2)C1` (stereo not drawn) [Compound 90] belongs above 10 µM.
In the case of `CC(=O)NC1CCC(C(=O)N[C@H]2CC[C@H](c3nc4ccccc4s3)CC2)C1` (stereo partly drawn) [Compound 134], the concentration for a half-maximal effect (EC50) on DUX4 is above 10 µM.
Consider `CC(=O)NCCCC(=O)N[C@H]1CC[C@@H](Cc2nc3ccccc3s2)CC1` [Compound 171], for which the concentration giving a half-maximal response (EC50) on DUX4 is above 10 µM.
Still for that read-out and setting: the result for `O=C(CCC1CCC(=O)N1)Nc1ccc(-c2nc3ccccc3s2)o1` (stereo not drawn) [Compound 179] reads above 10 µM; that for `CC(=O)NCCCC(=O)Nc1nc(-c2ccccc2)cs1` [Compound 126], above 10 µM; that for `CC(=O)NCCCC(=O)N[C@H]1C[C@H](c2nc3ccccc3s2)C1` [Compound 112], above 10 µM.
Consider `O=C(CCCc1cccnc1)N[C@H]1CC[C@H](c2nc3ccccc3s2)CC1` [Compound 164], for which, at DUX4, the half-maximal effective concentration (EC50) was above 10 µM.
`CC(=O)NCCCC(=O)Nc1cc(C)cc(-c2nc3ccccc3s2)c1` [Compound 72]: at DUX4, the 50% effective concentration (EC50) was above 10 µM.
For `CC(=O)NCCCC(=O)Nc1cc(Cl)cc(-c2nc3ccccc3s2)c1` [Compound 101], the half-maximal effective concentration (EC50) on DUX4 was above 10 µM.
Consider `O=C(NCCc1cncnc1)c1ccc(-c2nc3ccccc3s2)cc1` [Compound 11], for which, at DUX4, the half-maximal effective concentration (EC50) is above 10 µM.
On to `O=C(CCCc1cccnc1)NC1CCC(c2nc3ccccc3s2)C1` (stereo not drawn) [Compound 157], for which, at DUX4, the half-maximal effective concentration (EC50) is above 10 µM.
In the case of `O=C(CCCc1cnco1)Nc1ccc(Cc2nc3ccccc3s2)cc1` [Compound 66], the 50% effective concentration (EC50) on DUX4 was above 10 µM.
For `CC(=O)N[C@@H]1CC[C@H](C(=O)Nc2nc3ccccc3s2)C1` [Compound 182], the EC50 on DUX4 is above 10 µM.
As to `CC(=O)NCCCC(=O)Nc1cc(Cl)cc(-c2nc3cc(F)ccc3s2)c1` [Compound 102], at DUX4, the EC50 was above 10 µM.
Turning to `O=C(CCCN1CCCC1=O)NCCCc1nc2ccccc2s1` [Compound 118], the concentration for a half-maximal effect (EC50) at DUX4 was above 10 µM.
`CN(C(=O)CCCN1C(=O)CCC1=O)c1ccc(-c2nc3cc(F)ccc3s2)cc1` [Compound 144]: at DUX4, the EC50 is above 10 µM.
Consider `O=C(CCCc1cccnc1)N[C@H]1CC[C@@H](c2nc3ccccc3s2)CC1` [Compound 163], for which the EC50 at DUX4 was above 10 µM.
Regarding `CC(=O)NCCCC(=O)N[C@H]1CC[C@H](Cc2nc3ccccc3s2)CC1` [Compound 172], the EC50 on DUX4 was above 10 µM.
Same read-out and setting: the result for `C=C(C)NCCC(=C)Nc1cc(C)cc(Cc2nc3ccccc3s2)c1` [Compound 120] reads above 10 µM; that for `O=C(CCCN1C(=O)CCC1=O)NCCCc1nc2ccccc2s1` [Compound 91], above 10 µM.
With `CC(=O)NCCCC(=O)N[C@H]1C[C@@H](c2nc3ccccc3s2)C1` [Compound 113], on DUX4, the EC50 was above 10 µM.
Turning to `O=C(Cc1ccc(-c2nc3ccccc3s2)cc1)NCCN1CCCC1=O` [Compound 119], the EC50 at DUX4 is above 10 µM.
On to `O=C(CCCCN1C(=O)CCC1=O)N[C@H]1CC[C@@H](c2nc3ccccc3s2)CC1` [Compound 151], for which, at DUX4, the EC50 is above 10 µM.
Turning to `O=C(CCCN1CCCC1=O)NC1CCCC1c1nc2ccccc2s1` (stereo not drawn) [Compound 117], at DUX4, the 50% effective concentration (EC50) is above 10 µM.
Turning to `CC(=O)NCCCC(=O)Nc1cccc(-c2nc3ccccc3s2)c1` [Compound 71], the EC50 on DUX4 was above 10 µM.
As to `CC(=O)CCCCC(=O)Nc1ccc(-c2nccs2)cc1` [Compound 23], the EC50 on DUX4 was above 10 µM.
On to `O=C(CCC1CCC(=O)N1)Nc1ccc(Cc2nc3ccccc3s2)cc1` (stereo not drawn) [Compound 178], for which the EC50 on DUX4 was above 10 µM.
For the molecule `CC(=O)NCCCC(=O)NCCCc1nc2ccccc2s1` [Compound 106], the EC50 on DUX4 was above 10 µM.
Consider `CC(=O)NCCCNC(=O)c1ccc(-c2nc3ccccc3s2)o1` [Compound 149], for which, on DUX4, the concentration for a half-maximal effect (EC50) is above 10 µM.
In the case of `CC(=O)N[C@H]1CC[C@@H](C(=O)Nc2nc3ccccc3s2)C1` [Compound 183], on DUX4, the EC50 was above 10 µM.
In the case of `O=C(CCN1CCCC1=O)Nc1ccc(Cc2nc3ccccc3s2)cc1` [Compound 8], the concentration for a half-maximal effect (EC50) at DUX4 was above 10 µM.
Take `CC(=O)NCCCC(=O)NC1CCC(c2nc3ccccc3s2)CC1` (stereo not drawn) [Compound 28]: the EC50 on DUX4 is above 10 µM.
Regarding `O=C(NCCCN1C(=O)CCC1=O)c1ccc(-c2nc3ccccc3s2)cc1` [Compound 7], the concentration giving a half-maximal response (EC50) at DUX4 was above 10 µM.
Same read-out and setting: to `O=C(CCCN1C(=O)CCC1=O)NC1CC(c2nc3ccccc3s2)C1` (stereo not drawn) [Compound 89] belongs above 10 µM.

The record behind these values is patent US20250313555A1, “2-SUBSTITUTED THIAZOLE AND BENZOTHIAZOLE COMPOSITIONS AND METHODS AS DUX4 INHIBITORS” (ALTAY THERAPEUTICS, INC., priority 2022, published 2025).
